In the NIST ThermoML archive (doi:10.1016/j.jct.2019.04.010):

Experiment: xn = mol fraction of the nth substance listed
Details: 100 kPa, Liquid; for viscosity: Concentric cylinders viscometry; for mass density: Vibrating tube method

CCCCn1cc[n+](C)c1.O=[N+]([O-])[O-] [1-butyl-3-methylimidazolium nitrate] + CCC(C)O
Details	mass density [kg/m3]	viscosity [mPa·s]
293.15 K, x1 = 0.0813	860.4	5.41
293.15 K, x1 = 0.1595	904.7	7.32
293.15 K, x1 = 0.2402	944.9	10.17
293.15 K, x1 = 0.35	991.2	15.43
293.15 K, x1 = 0.4403	1023.7	21.65
293.15 K, x1 = 0.5597	1060.8	33.63
293.15 K, x1 = 0.6503	1085.4	46.65
293.15 K, x1 = 0.7398	1107	65
293.15 K, x1 = 0.8502	1130.6	100.4
293.15 K, x1 = 0.9399	1147.7	156.4
293.15 K, x1 = 1	1158.3	223.54
298.15 K, x1 = 0.0813	856.7	4.47
298.15 K, x1 = 0.1595	901.2	6.12
298.15 K, x1 = 0.2402	941.3	8.37
298.15 K, x1 = 0.35	987.7	12.73
298.15 K, x1 = 0.4403	1020.3	17.92
298.15 K, x1 = 0.5597	1057.5	27.57
298.15 K, x1 = 0.6503	1082.1	38.2
298.15 K, x1 = 0.7398	1103.8	52.3
298.15 K, x1 = 0.8502	1127.6	79.2
298.15 K, x1 = 0.9399	1144.7	119
298.15 K, x1 = 1	1155.2	168.97
303.15 K, x1 = 0.0813	852.6	3.85
303.15 K, x1 = 0.1595	897.3	5.31
303.15 K, x1 = 0.2402	937.4	7.21
303.15 K, x1 = 0.35	984.1	10.87
303.15 K, x1 = 0.4403	1016.8	15.15
303.15 K, x1 = 0.5597	1054.2	22.92
303.15 K, x1 = 0.6503	1078.9	30.82
303.15 K, x1 = 0.7398	1100.8	41.3
303.15 K, x1 = 0.8502	1124.6	62.3
303.15 K, x1 = 0.9399	1141.8	92
303.15 K, x1 = 1	1152.3	125.36
308.15 K, x1 = 0.0813	848.6	3.32
308.15 K, x1 = 0.1595	893.3	4.58
308.15 K, x1 = 0.2402	933.6	6.25
308.15 K, x1 = 0.35	980.4	9.38
308.15 K, x1 = 0.4403	1013.3	12.93
308.15 K, x1 = 0.5597	1050.9	19.27
308.15 K, x1 = 0.6503	1075.7	25.57
308.15 K, x1 = 0.7398	1097.6	33.2
308.15 K, x1 = 0.8502	1121.7	48.8
308.15 K, x1 = 0.9399	1138.9	70.7
308.15 K, x1 = 1	1149.3	96.74
313.15 K, x1 = 0.0813	844.6	2.83
313.15 K, x1 = 0.1595	889.5	3.98
313.15 K, x1 = 0.2402	929.8	5.46
313.15 K, x1 = 0.35	976.9	8.16
313.15 K, x1 = 0.4403	1009.9	11.18
313.15 K, x1 = 0.5597	1047.7	16.39
313.15 K, x1 = 0.6503	1072.7	21.49
313.15 K, x1 = 0.7398	1094.7	28
313.15 K, x1 = 0.8502	1118.8	40
313.15 K, x1 = 0.9399	1136.1	56.6
313.15 K, x1 = 1	1146.5	75.12
318.15 K, x1 = 0.0813	840.2	2.44
318.15 K, x1 = 0.1595	885.3	3.47
318.15 K, x1 = 0.2402	925.8	4.81
318.15 K, x1 = 0.35	973.4	7.15
318.15 K, x1 = 0.4403	1006.6	9.72
318.15 K, x1 = 0.5597	1044.5	14.08
318.15 K, x1 = 0.6503	1069.6	18.26
318.15 K, x1 = 0.7398	1091.8	23.5
318.15 K, x1 = 0.8502	1116.1	33
318.15 K, x1 = 0.9399	1133.5	44.4
318.15 K, x1 = 1	1143.8	56.28
323.15 K, x1 = 0.0813	836	2.16
323.15 K, x1 = 0.1595	881.2	3.06
323.15 K, x1 = 0.2402	921.9	4.26
323.15 K, x1 = 0.35	969.7	6.32
323.15 K, x1 = 0.4403	1003.1	8.53
323.15 K, x1 = 0.5597	1041.3	12.21
323.15 K, x1 = 0.6503	1066.5	15.68
323.15 K, x1 = 0.7398	1088.9	19.7
323.15 K, x1 = 0.8502	1113.4	27.2
323.15 K, x1 = 0.9399	1130.9	36.6
323.15 K, x1 = 1	1141.2	45.17
